In assay [1] the test system is HCT116 colorectal cancer cells. The assay is described as follows: Cisplatin Sensitization Assay (96 h cell viability MTS). In kind it is cell-based. To be noted: concentration of compound required to reduce the IC50 of Cisplatin alone by at least 3-fold; HCT116, 96 h MTS. How it is done:
Compounds can be screened for their ability to sensitize HCT116 colorectal cancer cells to Cisplatin using a 96 h cell viability (MTS) assay. […] Compounds and Cisplatin are then both added simultaneously to the cell media in 2-fold serial dilutions from a top final concentration of 10 μM as a full matrix of concentrations in a final cell volume of 200 μl, and the cells are then incubated at 37° C. in 5% CO2. After 96 h, 40 μl of MTS reagent (Promega G358a) is added to each well and the cells are incubated for 1 h at 37° C. in 5% CO2. Finally, absorbance is measured at 490 nm using a SpectraMax Plus 384 reader (Molecular Devices) and the concentration of compound required to reduce the IC50 of Cisplatin alone by at least 3-fold (to 1 decimal place) can be reported.

Assay [2] addresses T1, ATR kinase (full-length ATR) (Homo sapiens, UniProt Q13535).
T1 construct: in the presence of 5 nM full-length ATR
Put plainly: ATR Inhibition Assay (radioactive-phosphate incorporation). The class given is biochemical. The note with it: Ki(app); 5 nM full-length ATR, 10 μM ATP, 800 μM target peptide, 25° C. How it is done:
Compounds were screened for their ability to inhibit ATR kinase using a radioactive-phosphate incorporation assay. Assays were carried out in a mixture of 50 mM Tris/HCl (pH 7.5), 10 mM MgCl2 and 1 mM DTT. Final substrate concentrations were 10 μM [γ-33P]ATP (3 mCi 33P ATP/mmol ATP, Perkin Elmer) and 800 μM target peptide (ASELPASQPQPFSAKKK (SEQ. ID NO: 1)).
Assays were carried out at 25° C. in the presence of 5 nM full-length ATR. An assay stock buffer solution was prepared containing all of the reagents listed above, with the exception of ATP and the test compound of interest. 13.5 μL of the stock solution was placed in a 96 well plate followed by addition of 2 μL of DMSO stock containing serial dilutions of the test compound (typically starting from a final concentration of 15 μM with 3-fold serial dilutions) in duplicate (final DMSO concentration 7%). The plate was pre-incubated for 10 minutes at 25° C. and the reaction initiated by addition of 15 μL [γ-33P]ATP (final concentration 10 μM).
The reaction was stopped after […] by the addition of 30 μL 0.1M phosphoric acid containing 2 mM ATP. A multiscreen phosphocellulose filter 96-well plate (Millipore, Cat no. MAPHN0B50) was pretreated with 100 μL 0.2M phosphoric acid prior to the addition of 45 μL of the stopped assay mixture. The plate was washed with 5×200 μL 0.2M phosphoric acid. After drying, 100 μL Optiphase ‘SuperMix’ liquid scintillation cocktail (Perkin Elmer) was added to the well prior to scintillation counting (1450 Microbeta Liquid Scintillation Counter, Wallac).
After removing mean background values for all of the data points, Ki(app) data were calculated from non-linear regression analysis of the initial rate data using the Prism software package (GraphPad Prism version 3.0cx for Macintosh, GraphPad Software, San Diego Calif., USA).

pKi: −log10 of the molar value.

T1 sequence (Q13535 whole entry): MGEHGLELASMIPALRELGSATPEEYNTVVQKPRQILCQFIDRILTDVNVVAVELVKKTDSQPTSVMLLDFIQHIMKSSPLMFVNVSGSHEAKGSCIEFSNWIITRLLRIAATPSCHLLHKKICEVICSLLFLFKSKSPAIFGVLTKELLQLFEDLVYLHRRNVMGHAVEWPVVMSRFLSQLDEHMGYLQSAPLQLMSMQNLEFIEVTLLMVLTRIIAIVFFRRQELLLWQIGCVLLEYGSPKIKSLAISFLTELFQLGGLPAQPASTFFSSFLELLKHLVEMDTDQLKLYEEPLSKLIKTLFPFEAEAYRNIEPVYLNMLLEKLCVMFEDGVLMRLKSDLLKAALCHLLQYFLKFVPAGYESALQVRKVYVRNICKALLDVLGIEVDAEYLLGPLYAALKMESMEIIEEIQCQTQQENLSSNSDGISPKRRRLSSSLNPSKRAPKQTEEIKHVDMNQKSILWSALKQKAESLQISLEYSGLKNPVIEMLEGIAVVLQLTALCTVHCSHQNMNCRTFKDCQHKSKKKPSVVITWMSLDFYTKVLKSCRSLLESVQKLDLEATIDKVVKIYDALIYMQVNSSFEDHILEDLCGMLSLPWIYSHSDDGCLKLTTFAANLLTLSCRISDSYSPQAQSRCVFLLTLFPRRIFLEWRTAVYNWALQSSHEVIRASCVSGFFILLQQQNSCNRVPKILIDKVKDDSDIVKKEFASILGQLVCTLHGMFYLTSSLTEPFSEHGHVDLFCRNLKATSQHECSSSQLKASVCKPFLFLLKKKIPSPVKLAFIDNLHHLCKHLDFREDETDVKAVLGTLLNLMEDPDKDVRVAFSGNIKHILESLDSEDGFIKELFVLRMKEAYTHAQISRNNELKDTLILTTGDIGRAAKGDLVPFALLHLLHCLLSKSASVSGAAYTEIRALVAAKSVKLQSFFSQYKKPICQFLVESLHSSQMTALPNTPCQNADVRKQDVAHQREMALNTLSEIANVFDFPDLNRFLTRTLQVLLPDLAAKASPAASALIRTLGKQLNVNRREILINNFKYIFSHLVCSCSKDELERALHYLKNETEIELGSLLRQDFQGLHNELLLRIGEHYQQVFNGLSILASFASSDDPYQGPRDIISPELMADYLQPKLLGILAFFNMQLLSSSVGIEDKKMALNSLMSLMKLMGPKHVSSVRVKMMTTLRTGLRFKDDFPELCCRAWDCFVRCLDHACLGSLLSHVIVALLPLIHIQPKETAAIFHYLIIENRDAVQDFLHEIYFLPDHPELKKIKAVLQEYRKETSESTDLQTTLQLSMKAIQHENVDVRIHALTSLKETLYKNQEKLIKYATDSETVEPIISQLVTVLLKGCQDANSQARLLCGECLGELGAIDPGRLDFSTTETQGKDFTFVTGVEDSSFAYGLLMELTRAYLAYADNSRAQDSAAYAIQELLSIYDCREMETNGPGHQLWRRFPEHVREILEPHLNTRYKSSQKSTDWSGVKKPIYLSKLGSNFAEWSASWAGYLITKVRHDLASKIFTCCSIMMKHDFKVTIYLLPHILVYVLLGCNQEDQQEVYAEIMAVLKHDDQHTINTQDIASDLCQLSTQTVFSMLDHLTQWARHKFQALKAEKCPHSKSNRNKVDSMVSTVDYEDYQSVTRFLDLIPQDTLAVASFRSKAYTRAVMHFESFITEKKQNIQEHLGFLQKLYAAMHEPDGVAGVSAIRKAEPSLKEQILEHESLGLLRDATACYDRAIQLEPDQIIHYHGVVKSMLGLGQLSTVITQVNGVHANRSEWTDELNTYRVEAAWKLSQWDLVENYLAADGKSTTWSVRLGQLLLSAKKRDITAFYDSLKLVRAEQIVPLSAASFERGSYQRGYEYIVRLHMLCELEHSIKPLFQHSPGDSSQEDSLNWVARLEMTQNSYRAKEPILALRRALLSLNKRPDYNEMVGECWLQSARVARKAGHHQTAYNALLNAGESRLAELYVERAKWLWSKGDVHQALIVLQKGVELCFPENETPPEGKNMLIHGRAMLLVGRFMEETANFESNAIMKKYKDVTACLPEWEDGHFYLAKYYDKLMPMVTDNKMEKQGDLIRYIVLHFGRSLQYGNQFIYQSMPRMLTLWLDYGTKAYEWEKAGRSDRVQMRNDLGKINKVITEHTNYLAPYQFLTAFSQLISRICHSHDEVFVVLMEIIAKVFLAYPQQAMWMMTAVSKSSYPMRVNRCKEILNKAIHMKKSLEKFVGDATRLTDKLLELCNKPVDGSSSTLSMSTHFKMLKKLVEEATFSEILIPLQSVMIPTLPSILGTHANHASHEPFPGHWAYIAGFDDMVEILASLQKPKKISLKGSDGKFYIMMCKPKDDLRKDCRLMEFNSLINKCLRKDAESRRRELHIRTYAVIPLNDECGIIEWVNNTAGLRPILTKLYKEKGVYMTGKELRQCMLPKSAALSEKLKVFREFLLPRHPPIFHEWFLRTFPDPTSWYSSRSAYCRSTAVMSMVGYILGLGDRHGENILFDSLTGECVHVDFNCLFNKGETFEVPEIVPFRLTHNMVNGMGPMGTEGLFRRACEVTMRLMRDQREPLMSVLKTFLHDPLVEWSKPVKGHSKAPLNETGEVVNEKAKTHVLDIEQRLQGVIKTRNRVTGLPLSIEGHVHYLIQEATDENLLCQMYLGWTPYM

The term pKi denotes the negative decadic logarithm of the Ki, by convention in mol/L. Take `CN1CCN(C(=O)C2CCN(c3ncncc3NC(=O)c3c(N)nn4cc(F)cnc34)CC2)CC1` [I-A-19, 2-amino-6-fluoro-N-(4-(4-(4-methylpiperazine-1-carbonyl)piperidin-1-yl)pyrimidin-5-yl)pyrazolo[1,5-a]pyrimidine-3-carboxamide]: the “Cisplatin Sensitization Assay” value in assay [1] is “+ (Compounds with a Cisplatin sensitization value >0.2 μM but <5 μM are marked with “+.”)”. For the same compound, in assay [2], the pKi was 5.30 to 6.00.

On to `CN(C)[C@H]1CC[C@H](Oc2ncncc2NC(=O)c2c(N)nn3ccc(C(F)(F)F)nc23)CC1` [I-A-13, 2-amino-N-(4-(((1r,4r)-4-(dimethylamino)cyclohexyl)oxy)pyrimidin-5-yl)-5-(trifluoromethyl)pyrazolo[1,5-a]pyrimidine-3-carboxamide], for which the “Cisplatin Sensitization Assay” value in assay [1] was “++ (Compounds with a Cisplatin sensitization value >0.02 μM but <0.2 μM are marked with “++.”)”. Besides, the pKi in assay [2] is 6.00 to 8.00.

With `Nc1nn2cc(F)cnc2c1C(=O)Nc1cnncc1N1CCN(C2CCOCC2)CC1` [I-B-3, 2-amino-6-fluoro-N-(5-(4-(tetrahydro-2H-pyran-4-yl)piperazin-1-yl)pyridazin-4-yl)pyrazolo[1,5-a]pyrimidine-3-carboxamide], in assay [1], the “Cisplatin Sensitization Assay” value was “++ (Compounds with a Cisplatin sensitization value >0.02 μM but <0.2 μM are marked with “++.”)”. Also, the pKi in assay [2] is 6.00 to 8.00.

As to `COCc1c(C)nsc1NC(=O)c1c(N)nn2cc(F)cnc12` [I-E-20, 2-amino-6-fluoro-N-(4-(methoxymethyl)-3-methylisothiazol-5-yl)pyrazolo[1,5-a]pyrimidine-3-carboxamide], the “Cisplatin Sensitization Assay” value in assay [1] is given as “+++ (Compounds with a Cisplatin sensitization value of <0.02 μM are marked with “+++.”)”. The pKi in assay [2] is 6.00 to 8.00.

Turning to `CN1CCN(c2cnccc2NC(=O)c2c(N)nn3cc(F)cnc23)CC1` [I-C-2, 2-amino-6-fluoro-N-(3-(4-methylpiperazin-1-yl)pyridin-4-yl)pyrazolo[1,5-a]pyrimidine-3-carboxamide], in assay [1], the “Cisplatin Sensitization Assay” value is listed as “++ (Compounds with a Cisplatin sensitization value >0.02 μM but <0.2 μM are marked with “++.”)”. Besides, the pKi in assay [2] was 6.00 to 8.00.

On to `Cc1cnccc1-c1cnccc1NC(=O)c1c(N)nn2cc(F)cnc12` [I-C-6, 2-amino-6-fluoro-N-(3′-methyl-[3,4′-bipyridin]-4-yl)pyrazolo[1,5-a]pyrimidine-3-carboxamide], for which, in assay [1], the “Cisplatin Sensitization Assay” value was “++ (Compounds with a Cisplatin sensitization value >0.02 μM but <0.2 μM are marked with “++.”)”. The negative logarithm of the Ki (pKi) in assay [2] was 6.00 to 8.00.

Take `Cc1nsc(NC(=O)c2c(N)nn3cc(F)cnc23)c1-c1cnn(C)c1` [I-E-12, 2-amino-6-fluoro-N-(3-methyl-4-(1-methyl-1H-pyrazol-4-yl)isothiazol-5-yl)pyrazolo[1,5-a]pyrimidine-3-carboxamide]: the “Cisplatin Sensitization Assay” value in assay [1] is “++ (Compounds with a Cisplatin sensitization value >0.02 μM but <0.2 μM are marked with “++.”)”. The pKi in assay [2] is 6.00 to 8.00.

As for `Cc1nsc(NC(=O)c2c(N)nn3cc(F)cnc23)c1-c1cccnc1` [I-E-3, 2-amino-6-fluoro-N-(3-methyl-4-(pyridin-3-yl)isothiazol-5-yl)pyrazolo[1,5-a]pyrimidine-3-carboxamide], the “Cisplatin Sensitization Assay” value in assay [1] was “+++ (Compounds with a Cisplatin sensitization value of <0.02 μM are marked with “+++.”)”. In assay [2], the pKi was 6.00 to 8.00.

As to `CC(=O)N1CC=C(c2c(C)nsc2NC(=O)c2c(N)nn3cc(F)cnc23)CC1` [I-E-9, N-(4-(1-acetyl-1,2,3,6-tetrahydropyridin-4-yl)-3-methylisothiazol-5-yl)-2-amino-6-fluoropyrazolo[1,5-a]pyrimidine-3-carboxamide], the “Cisplatin Sensitization Assay” value in assay [1] is “+++ (Compounds with a Cisplatin sensitization value of <0.02 μM are marked with “+++.”)”. Besides, the pKi in assay [2] was 6.00 to 8.00.

As to `Nc1nn2cc(F)cnc2c1C(=O)Nc1cncn1-c1ccccc1` [I-D-2, 2-amino-6-fluoro-N-(1-phenyl-1H-imidazol-5-yl)pyrazolo[1,5-a]pyrimidine-3-carboxamide], the “Cisplatin Sensitization Assay” value in assay [1] is “+++ (Compounds with a Cisplatin sensitization value of <0.02 μM are marked with “+++.”)”. The pKi in assay [2] was 6.00 to 8.00.

For `Nc1nn2cc(F)cnc2c1C(=O)Nc1cncn1C1CC1` [I-D-3, 2-amino-N-(1-cyclopropyl-1H-imidazol-5-yl)-6-fluoropyrazolo[1,5-a]pyrimidine-3-carboxamide], the “Cisplatin Sensitization Assay” value in assay [1] was “+++ (Compounds with a Cisplatin sensitization value of <0.02 μM are marked with “+++.”)”. Besides, the negative logarithm of the Ki (pKi) in assay [2] is 6.00 to 8.00.

Turning to `Nc1nn2cc(F)cnc2c1C(=O)Nc1cncnc1O[C@H]1C[C@]2(CCN2)C1` [I-A-18, N-(4-((4s,6r)-1-azaspiro[3.3]heptan-6-yloxy)pyrimidin-5-yl)-2-amino-6-fluoropyrazolo[1,5-a]pyrimidine-3-carboxamide], the “Cisplatin Sensitization Assay” value in assay [1] is “+ (Compounds with a Cisplatin sensitization value >0.2 μM but <5 μM are marked with “+.”)”. Also, the pKi in assay [2] was 5.30 to 6.00.

On to `Cc1nncc(NC(=O)c2c(N)nn3cc(F)cnc23)c1N1CCC(C(=O)N2CCN(C)CC2)CC1` [I-B-14, 2-amino-6-fluoro-N-(6-methyl-5-(4-(4-methylpiperazine-1-carbonyl)piperidin-1-yl)pyridazin-4-yl)pyrazolo[1,5-a]pyrimidine-3-carboxamide], for which the “Cisplatin Sensitization Assay” value in assay [1] was “+++ (Compounds with a Cisplatin sensitization value of <0.02 μM are marked with “+++.”)”. In assay [2], the pKi was 6.00 to 8.00.

Regarding `Nc1nn2cc(F)cnc2c1C(=O)Nc1ccncc1N1CCC(C(=O)N2CCN(C3COC3)CC2)CC1` [I-C-9, 2-amino-6-fluoro-N-(3-(4-(4-(oxetan-3-yl)piperazine-1-carbonyl)piperidin-1-yl)pyridin-4-yl)pyrazolo[1,5-a]pyrimidine-3-carboxamide], the “Cisplatin Sensitization Assay” value in assay [1] is given as “++ (Compounds with a Cisplatin sensitization value >0.02 μM but <0.2 μM are marked with “++.”)”. Besides, in assay [2], the pKi is 6.00 to 8.00.

As to `Nc1nn2cc(Cl)cnc2c1C(=O)Nc1cncnc1OC1CCN(C2COC2)CC1` [I-A-9, 2-amino-6-chloro-N-(4-((1-(oxetan-3-yl)piperidin-4-yl)oxy)pyrimidin-5-yl)pyrazolo[1,5-a]pyrimidine-3-carboxamide], the “Cisplatin Sensitization Assay” value in assay [1] is listed as “+ (Compounds with a Cisplatin sensitization value >0.2 μM but <5 μM are marked with “+.”)”. In addition, the pKi in assay [2] is 5.30 to 6.00.

In the case of `Nc1nn2cc(F)cnc2c1C(=O)Nc1ccncc1N1CCCC1` [I-C-11, 2-amino-6-fluoro-N-(3-(pyrrolidin-1-yl)pyridin-4-yl)pyrazolo[1,5-a]pyrimidine-3-carboxamide], the “Cisplatin Sensitization Assay” value in assay [1] was “++ (Compounds with a Cisplatin sensitization value >0.02 μM but <0.2 μM are marked with “++.”)”. The pKi in assay [2] is 6.00 to 8.00.

As for `COc1ncncc1NC(=O)c1c(N)nn2cc(CC#N)cnc12` [I-A-17, 2-amino-6-(cyanomethyl)-N-(4-methoxypyrimidin-5-yl)pyrazolo[1,5-a]pyrimidine-3-carboxamide], the “Cisplatin Sensitization Assay” value in assay [1] was “++ (Compounds with a Cisplatin sensitization value >0.02 μM but <0.2 μM are marked with “++.”)”. In addition, the pKi in assay [2] was 6.00 to 8.00.

As to `CN1CCN(Cc2ccc(-c3cnncc3NC(=O)c3c(N)nn4cc(F)cnc34)cc2)CC1` [I-B-7, 2-amino-6-fluoro-N-(5-(4-((4-methylpiperazin-1-yl)methyl)phenyl)pyridazin-4-yl)pyrazolo[1,5-a]pyrimidine-3-carboxamide], the “Cisplatin Sensitization Assay” value in assay [1] is reported as “+++ (Compounds with a Cisplatin sensitization value of <0.02 μM are marked with “+++.”)”. Moreover, the pKi in assay [2] was 6.00 to 8.00.

Turning to `Cc1nsc(NC(=O)c2c(N)nn3cc(F)cnc23)c1-c1cncnc1` [I-E-11, 2-amino-6-fluoro-N-(3-methyl-4-(pyrimidin-5-yl)isothiazol-5-yl)pyrazolo[1,5-a]pyrimidine-3-carboxamide], in assay [1], the “Cisplatin Sensitization Assay” value was “++ (Compounds with a Cisplatin sensitization value >0.02 μM but <0.2 μM are marked with “++.”)”. Also, the pKi in assay [2] is 6.00 to 8.00.

For the compound `Cc1ncccc1-c1c(C)nsc1NC(=O)c1c(N)nn2cc(F)cnc12` [I-E-1, 2-amino-6-fluoro-N-(3-methyl-4-(2-methylpyridin-3-yl)isothiazol-5-yl)pyrazolo[1,5-a]pyrimidine-3-carboxamide], the “Cisplatin Sensitization Assay” value in assay [1] is recorded as “+++ (Compounds with a Cisplatin sensitization value of <0.02 μM are marked with “+++.”)”. In addition, in assay [2], the pKi was greater than 8.00.

These data come from patent publication US8957078B2, “Compounds useful as inhibitors of ATR kinase” (Vertex Pharmaceuticals Incorporated, priority 2013, dated 2015).
